The results in this text go back to ChEMBL document CHEMBL1144596, “Synthesis of O-prenylated and O-geranylated derivatives of 5-benzylidene2,4-thiazolidinediones and evaluation of their free radical scavenging activity as well as effect on some phase II antioxidant/detoxifying enzymes” (Bioorg Med Chem Lett, 2007).

Molecules are shown by their SMILES.

Test [1] is described as follows: Inhibition of DPPH radical scavenging activity. The format is functional.
Test [2] is filed under the species Mus musculus. The test can be described thus: Effect on lipid-peroxidation level per protein in Swiss Albino mouse liver. Format: functional, organism-based.
For test [3], the species on record is Mus musculus. The test can be described thus: Stimulation of GST level in Swiss Albino mouse liver. Format: functional.
The species named for test [4] is Mus musculus. Briefly: Stimulation of GSH level per protein in Swiss Albino mouse liver. Format: functional.
The species named for test [5] is Mus musculus. The test can be described thus: Stimulation of SOD level per protein in Swiss Albino mouse liver. The format is functional.
For test [6], the species on record is Mus musculus. Briefly: Stimulation of CAT level per protein in Swiss Albino mouse liver. Format: functional.
Test [7] concerns Mus musculus. The test can be described thus: Hepatoprotecting activity in Swiss Albino mouse liver assessed as ALT level at 3 mg/kg, po for 20 days. The format is functional.
Test [8] concerns Mus musculus. The test can be described thus: Hepatoprotecting activity in Swiss Albino mouse liver assessed as […] level at 3 mg/kg, po for 20 days. Format: functional.
For test [9], the system named is Mus musculus. The test can be described thus: Hepatoprotecting activity in Swiss Albino mouse liver assessed as urea level at 3 mg/kg, po for 20 days.

What is called IC50 is the concentration that gives 50% inhibition. The low end stands for higher potency, the high end for lower potency. `COc1cc(/C=C2/SC(=O)NC2=O)cc(OC)c1OCC=C(C)C` came in with a half-inhibitory concentration (IC50) in [1] of 4.08 µM. The Activity in [2] came to 0.158 nmol/mg; in [3], 140.54 nmol/mg/min; in test [4], 238.22 nmol/mg; in test [5], 67.45 U/mg; in test [6], 23.97 U/mg; in [7] it was 7.3 IU/L. Besides, the Activity in test [8] worked out at 37.99 IU/L. Besides, the Urea level in [9] amounted to 16.53 mg/dL.

`COc1cc(/C=C2/SC(=O)NC2=O)cc(OC)c1O` had an IC50 in test [1] of 2.85 µM.

`O=C1NC(=O)/C(=C\c2ccc(O)cc2)S1` displayed an IC50 in test [1] of 12 µM.

In the case of `CC(C)=CCOc1ccc(/C=C2/SC(=O)NC2=O)cc1`, the half-inhibitory concentration (IC50) in test [1] was more than 50 µM.

In test [1], `COc1cc(/C=C2/SC(=O)NC2=O)ccc1OCC=C(C)C` registered an IC50 of 17.9 µM.

The molecule `COc1cc(/C=C2/SC(=O)NC2=O)ccc1O` returned an IC50 in test [1] of 2.49 µM. The Activity is 0.143 nmol/mg in test [2]; 220.8 nmol/mg/min in test [3]; 184.09 nmol/mg in [4]; 65.45 U/mg in test [5]; 16.85 U/mg in test [6]; 4.8 IU/L in [7]. Besides, in [8], the Activity is listed as 38.1 IU/L. In addition, the Urea level in [9] came to 13.83 mg/dL.

In [1], `CC(C)=CCC/C(C)=C/COc1ccccc1/C=C1/SC(=O)NC1=O` showed a half-inhibitory concentration (IC50) of 12 µM.

`O=C1NC(=O)/C(=C\c2ccccc2O)S1` displayed a concentration for half-maximal inhibition (IC50) in [1] of 23.5 µM.

`Cc1c(C)c2c(c(C)c1O)CC[C@@](C)(CCC[C@H](C)CCC[C@H](C)CCCC(C)C)O2` [ALPHA-TOCOPHEROL] registered an IC50 in test [1] of 2.3 µM.

The molecule `CC(C)=CCOc1ccccc1/C=C1/SC(=O)NC1=O` showed a concentration for half-maximal inhibition (IC50) in test [1] of 43.3 µM.

In test [1], `CC(C)=CCC/C(C)=C\COc1ccc(/C=C2/SC(=O)NC2=O)cc1` had a concentration for half-maximal inhibition (IC50) of 9.8 µM. Further, the Activity in test [2] was 0.148 nmol/mg; in test [3], 160.33 nmol/mg/min; in [4] it was 245.32 nmol/mg; in [5] it was 70.15 U/mg; in test [6], 22.32 U/mg; in test [7], 6.32 IU/L. In addition, the Activity in [8] amounted to 32.88 IU/L. The Urea level in [9] came to 14.69 mg/dL.

`COc1cc(/C=C2/SC(=O)NC2=O)ccc1OC/C=C(/C)CCC=C(C)C` displayed an IC50 in [1] of 17.6 µM.

In test [1], `COc1cc(/C=C2/SC(=O)NC2=O)cc(OC)c1OC/C=C(/C)CCC=C(C)C` came in with an IC50 of 32.1 µM.
